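Results reflect a 48-hour exposure of cells in 96-well plates to compound at five concentrations. GI50 = concentration required for 50% inhibition of growth. The concentration for full growth arrest is given as TGI.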
Tests used:
Test in all cases: NCI tumour cell line growth inhibition, 48 h
[1] = tested on: SR leukemia
[2] = tested on: SK-MEL-2 melanoma
[3] = tested on: SW-620 colon
[4] = tested on: OVCAR-5 ovarian
[5] = tested on: MALME-3M melanoma
[6] = tested on: UACC-62 melanoma
[7] = tested on: A549 NSCLC
[8] = tested on: NCI-H460 lung
[9] = tested on: UO-31 renal
[10] = tested on: MCF7 breast
[11] = tested on: M14 melanoma
[12] = tested on: SF-295 CNS
[13] = tested on: SK-MEL-5 melanoma
[14] = tested on: SK-OV-3 ovarian
[15] = tested on: NCI-H522 lung
[16] = tested on: IGROV1 ovarian
[17] = tested on: RPMI-8226 leukemia
[18] = tested on: MOLT-4 leukemia
[19] = tested on: HT29 colon
[20] = tested on: HCT-116 colon
[21] = tested on: SN12C renal
[22] = tested on: COLO 205 colon
[23] = tested on: SNB-75 CNS
[24] = tested on: K-562 leukemia
[25] = tested on: SF-539 CNS
[26] = tested on: HL-60(TB) leukemia
[27] = tested on: NCI-H226 lung
[28] = tested on: OVCAR-8 ovarian
[29] = tested on: NCI-H23 lung
[30] = tested on: KM12 colon
[31] = tested on: RXF 393 renal
[32] = tested on: MDA-MB-435
[33] = tested on: SK-MEL-28 melanoma
[34] = tested on: LOX IMVI melanoma
[35] = tested on: EKVX NSCLC
[36] = tested on: DU-145 prostate
[37] = tested on: MDA-MB-231 breast
[38] = tested on: SF-268 CNS
[39] = tested on: HCT-15 colon
[40] = tested on: HS 578T breast
[41] = tested on: OVCAR-4 ovarian
[42] = tested on: 786-0 renal
[43] = tested on: HCC-2998 colon
[44] = tested on: OVCAR-3 ovarian
[45] = tested on: HOP-62 NSCLC
[46] = tested on: CCRF-CEM leukemia
[47] = tested on: ACHN renal
[48] = tested on: T-47D breast
[49] = tested on: TK-10 renal
[50] = tested on: NCI/ADR-RES ovarian
[51] = tested on: A498 renal
[52] = tested on: BT-549 breast
[53] = tested on: CAKI-1 renal
[54] = tested on: U251 CNS
[55] = tested on: SNB-19 CNS
[56] = tested on: UACC-257 melanoma
[57] = tested on: PC-3 prostate
[58] = tested on: HOP-92 NSCLC

CCS/C(Nc1ccccc1)=C(\C#N)C(=O)Nc1ccc(OC)cc1
GI50 [1]: 1.54 µM
TGI [1]: > 100 µM
GI50 [2]: 3.01 µM
TGI [2]: > 100 µM
GI50 [3]: 2.55 µM
TGI [3]: > 100 µM
GI50 [4]: 5.52 µM
TGI [4]: > 100 µM
GI50 [5]: 47.3 µM
TGI [5]: > 100 µM
GI50 [6]: 2.58 µM
TGI [6]: > 100 µM
GI50 [7]: 5.91 µM
TGI [7]: > 100 µM
GI50 [8]: 3.14 µM
TGI [8]: 34.2 µM
GI50 [9]: 5.49 µM
TGI [9]: > 100 µM
GI50 [10]: 2.71 µM
TGI [10]: > 100 µM
GI50 [11]: 2.27 µM
TGI [11]: 87.4 µM
GI50 [12]: 3.06 µM
TGI [12]: > 100 µM
GI50 [13]: 2.2 µM
TGI [13]: 8.19 µM
GI50 [14]: 3.28 µM
TGI [14]: 50.2 µM
GI50 [15]: 2.2 µM
TGI [15]: 9.68 µM
GI50 [16]: 5.3 µM
TGI [16]: > 100 µM
GI50 [17]: 2.52 µM
TGI [17]: > 100 µM
GI50 [18]: 2.61 µM
TGI [18]: > 100 µM
GI50 [19]: 3.47 µM
TGI [19]: 33.3 µM
GI50 [20]: 1.95 µM
TGI [20]: 16.4 µM
GI50 [21]: 5.91 µM
TGI [21]: > 100 µM
GI50 [22]: 3.06 µM
TGI [22]: 11.2 µM
GI50 [23]: 2.13 µM
TGI [23]: 7.21 µM
GI50 [24]: 0.436 µM
TGI [24]: > 100 µM
GI50 [25]: 1.96 µM
TGI [25]: 4.81 µM
GI50 [26]: 2.87 µM
TGI [26]: > 100 µM
GI50 [27]: 5.45 µM
TGI [27]: 50.7 µM
GI50 [28]: 4.37 µM
TGI [28]: > 100 µM
GI50 [29]: 4.9 µM
TGI [29]: > 100 µM
GI50 [30]: 2.8 µM
TGI [30]: > 100 µM
GI50 [31]: 2.24 µM
TGI [31]: 7.86 µM
GI50 [32]: 0.37 µM
TGI [32]: 1.89 µM
GI50 [33]: 15.3 µM
TGI [33]: > 100 µM
GI50 [34]: 6.16 µM
TGI [34]: > 100 µM
GI50 [35]: 4.42 µM
TGI [35]: > 100 µM
GI50 [36]: 3.48 µM
TGI [36]: 49.8 µM
GI50 [37]: 4.14 µM
TGI [37]: 36.5 µM
GI50 [38]: 6.8 µM
TGI [38]: > 100 µM
GI50 [39]: 1.19 µM
TGI [39]: > 100 µM
GI50 [40]: 4.07 µM
TGI [40]: > 100 µM
GI50 [41]: 7.61 µM
TGI [41]: > 100 µM
GI50 [42]: 4.14 µM
TGI [42]: > 100 µM
GI50 [43]: 6.56 µM
TGI [43]: > 100 µM
GI50 [44]: 2.6 µM
TGI [44]: 8.59 µM
GI50 [45]: 5.62 µM
TGI [45]: > 100 µM
GI50 [46]: 1.83 µM
TGI [46]: > 100 µM
GI50 [47]: 5.04 µM
TGI [47]: > 100 µM
GI50 [48]: 4.08 µM
TGI [48]: > 100 µM
GI50 [49]: 24.3 µM
TGI [49]: > 100 µM
GI50 [50]: 2.62 µM
TGI [50]: > 100 µM
GI50 [51]: 2.54 µM
TGI [51]: 26.6 µM
GI50 [52]: 2.8 µM
TGI [52]: > 100 µM
GI50 [53]: 3.39 µM
TGI [53]: > 100 µM
GI50 [54]: 4.42 µM
TGI [54]: > 100 µM
GI50 [55]: 3.55 µM
TGI [55]: > 100 µM
GI50 [56]: 21.2 µM
TGI [56]: > 100 µM

CC(=O)OCC(=O)[C@@]1(O)CC[C@H]2[C@@H]3CCC4=CC(=O)C=C[C@]4(C)[C@@]3(F)[C@@H](O)C[C@@]21C
TGI [57]: > 100 µM

Cc1ccc2c(O)c3c(cc2c1)C(=O)c1c2c(cc(O)c1C3=O)C1(C)OC(O2)C(O)C(N(C)C)C1O (stereo not drawn)
TGI [4]: 3.73 µM
TGI [58]: 2.22 µM
TGI [22]: 1.91 µM
TGI [24]: 0.442 µM
TGI [30]: 2.77 µM
TGI [36]: 2.23 µM
TGI [38]: 81 µM
TGI [39]: 2.44 µM
TGI [42]: 1.6 µM
TGI [43]: 2.34 µM
TGI [44]: 1.59 µM
TGI [47]: 1.88 µM
TGI [49]: 3.1 µM
TGI [50]: 2.42 µM
TGI [51]: 2.37 µM

Reference: PubChem BioAssay (NCI)
